In patent US12404318B2, “Combination HBV therapy” (priority 2018, dated 2025):

Test system: HBV (rAAV8-1.3HBV strain ayw, D type)
Test: Combination therapy study in AAV-HBV mice (Example 1): serum HBsAg and HBV DNA
Type: in vivo, C57BL/6 mice
Description: The mice (C57BL/6 strain) were inoculated with the following amount of rAAV8-1.3HBV strain ayw, D type: 1.0×10^11 viral genomes per mouse in 200 μl volume via tail veins injection. Four weeks after viral inoculation, treatment with test compounds was initiated.
Entecavir was administered orally once per day.

C=C1[C@H](CO)[C@@H](O)C[C@@H]1n1cnc2c(=O)[nH]c(N)nc21 [ETV, entecavir, reference compound]
HBsAg levels from mouse serum (average log HBsAg content) (Treatment 13: ETV 0.001 mg/kg, day 0 post-dose): 4.54 log IU/ml
HBsAg levels from mouse serum (average log HBsAg content) (Treatment 13: ETV 0.001 mg/kg, day 3 post-dose): 4.54 log IU/ml
HBsAg levels from mouse serum (average log HBsAg content) (Treatment 13: ETV 0.001 mg/kg, day 7 post-dose): 4.39 log IU/ml
HBsAg levels from mouse serum (average log HBsAg content) (Treatment 13: ETV 0.001 mg/kg, day 10 post-dose): 4.29 log IU/ml
HBsAg levels from mouse serum (average log HBsAg content) (Treatment 13: ETV 0.001 mg/kg, day 14 post-dose): 4.28 log IU/ml
HBsAg levels from mouse serum (average log HBsAg content) (Treatment 13: ETV 0.001 mg/kg, day 17 post-dose): 4.24 log IU/ml
HBsAg levels from mouse serum (average log HBsAg content) (Treatment 13: ETV 0.001 mg/kg, day 21 post-dose): 4.13 log IU/ml
HBsAg levels from mouse serum (average log HBsAg content) (Treatment 13: ETV 0.001 mg/kg, day 24 post-dose): 4.21 log IU/ml
HBsAg levels from mouse serum (average log HBsAg content) (Treatment 13: ETV 0.001 mg/kg, day 28 post-dose): 3.98 log IU/ml
HBsAg levels from mouse serum (average log HBsAg content) (Treatment 13: ETV 0.001 mg/kg, day 31 post-dose): 4.02 log IU/ml
HBsAg levels from mouse serum (average log HBsAg content) (Treatment 13: ETV 0.001 mg/kg, day 35 post-dose): 3.88 log IU/ml
HBsAg levels from mouse serum (average log HBsAg content) (Treatment 13: ETV 0.001 mg/kg, day 38 post-dose): 3.92 log IU/ml
HBsAg levels from mouse serum (average log HBsAg content) (Treatment 13: ETV 0.001 mg/kg, day 42 post-dose): 3.84 log IU/ml

HBV02: chemically synthesized double-stranded oligonucleotide (siRNA) linked to a ligand with three GalNAc residues; sense SEQ ID NO:7, antisense SEQ ID NO:8 (sense GUGUGCACUUCGCUUCACA; antisense UGUGAAGCGAAGUGCACACUU; triantennary GalNAc ligand attached, chemically modified, pattern not given here)
Reduction of serum HBV DNA (viral load) relative to the saline control (AAV/HBV-infected C57BL/6 mice, HBV02 3 mg/kg, HBC34 antibody (HBC34-v7-mu-IgG2a) 15 mg/kg, alone or combined, FIGS. 2A, 2B): ~0.5 log10
Reduction of serum HBsAg relative to the saline control (AAV/HBV-infected C57BL/6 mice, HBV02 3 mg/kg, HBC34 antibody (HBC34-v7-mu-IgG2a) 15 mg/kg, alone or combined, FIGS. 3A, 3B): 1 log10
HBsAg levels from mouse serum (average log HBsAg content) (Treatment 1: HBV02 3 mg/kg, day 0 post-dose): 4.55 log IU/ml
HBsAg levels from mouse serum (average log HBsAg content) (Treatment 1: HBV02 3 mg/kg, day 3 post-dose): 3.99 log IU/ml
HBsAg levels from mouse serum (average log HBsAg content) (Treatment 1: HBV02 3 mg/kg, day 7 post-dose): 3.67 log IU/ml
HBsAg levels from mouse serum (average log HBsAg content) (Treatment 1: HBV02 3 mg/kg, day 10 post-dose): 3.59 log IU/ml
HBsAg levels from mouse serum (average log HBsAg content) (Treatment 1: HBV02 3 mg/kg, day 14 post-dose): 3.71 log IU/ml
HBsAg levels from mouse serum (average log HBsAg content) (Treatment 1: HBV02 3 mg/kg, day 17 post-dose): 3.69 log IU/ml
HBsAg levels from mouse serum (average log HBsAg content) (Treatment 1: HBV02 3 mg/kg, day 21 post-dose): 3.60 log IU/ml
HBsAg levels from mouse serum (average log HBsAg content) (Treatment 1: HBV02 3 mg/kg, day 24 post-dose): 3.57 log IU/ml
HBsAg levels from mouse serum (average log HBsAg content) (Treatment 1: HBV02 3 mg/kg, day 28 post-dose): 3.57 log IU/ml
HBsAg levels from mouse serum (average log HBsAg content) (Treatment 1: HBV02 3 mg/kg, day 31 post-dose): 3.81 log IU/ml
HBsAg levels from mouse serum (average log HBsAg content) (Treatment 1: HBV02 3 mg/kg, day 35 post-dose): 3.72 log IU/ml
HBsAg levels from mouse serum (average log HBsAg content) (Treatment 1: HBV02 3 mg/kg, day 38 post-dose): 3.72 log IU/ml
HBsAg levels from mouse serum (average log HBsAg content) (Treatment 1: HBV02 3 mg/kg, day 42 post-dose): 3.55 log IU/ml
